Results published in patent US20250034136A1 (Nimbus Wadjet, Inc., priority 2023, published 2025).
pEC50, pIC50: −log10 of the molar value. Where two headings read alike, the source gives them in different places.

Columns and labels:
[1] = target: WRN (BV08), human Werner helicase (Uniprot Q14191, amino acids 517-1235 with L1074F point mutation) (Homo sapiens (Human), UniProt Q14191, L1074F); assay: WRN (BV08) ADP-Glo assay; assay type: biochemical; conditions: class symbols A-E, read-out: ADP-Glo_hWRN_IC50
Experimental: Bovine skin gelatin (BSG), dimethyl sulfoxide (DMSO), Pluronic F-127 and tris(2-carboxyethyl)phosphine hydrochloride solution (TCEP) were purchased from Sigma-Aldrich (St. Louis, MO) at the highest level of purity possible. […] DNA strands were annealed by heating to 95° C. for 5 minutes followed by slow cooling to room temperature. Compounds in 100% DMSO (0.1 μl) were spotted into a 384-well white polystyrene Optiplate-384 (Perkin Elmer; Waltham, MA) assay plate using a LabCyte Echo 550 (Agilent; Santa Clara, CA). DMSO (0.1 μl) was added to columns 12, rows A-H and column 24, rows I-P for the maximum signal control. […] Compounds/DMSO were preincubated for 15 minutes at 25° C. with 5 μl 2×WRN (BV08), prepared as described below, in assay buffer containing 20 mM Bicine (pH=7.5), 1 mM MgCl2, 10 mM KCl, 0.1% Pluronic F-127, 0.005% BSG, 1 mM TCEP. The reaction was initiated by the addition of 5 μl 2× substrate mixture in assay buffer and incubated for 60 minutes at 25° C. The final concentrations of the assay components were 0.15 nM WRN, 5 μM ATP, and 0.1 nM DNA duplex. The final DMSO concentration was 1% and the reference compound concentration (NSC-617145) used for the minimal signal control was 20 μM. The reaction was stopped by the addition of the ADP-Glo Kit components (Promega; Madison, WI) as directed and the relative luminescence units (RLU) were read on an Envision 2104 (Perkin Elmer; Waltham, MA). % inhibition calculation:
[formula] • Where RLU=relative luminescence units, sample=signal in sample well, and MIN and MAX are the respective minimum and maximum signal controls.
[formula] • Where top and bottom are normally allowed to float but may be fixed at 100 or 0 respectively in a 3-parameter fit. Y is the % inhibition and X is the compound concentration.
Molecular Biology and virus production. […] The baculovirus from the expression plasmid WRN—BV08 was generated from transfection and amplification following the manufacturer's instructions.
Sf9 cells grown in SF900II media were infected with 1:200 WRN—BV08 P2 virus and incubated for protein expression for 72 h at 27° C. The WRN protein was purified using the following protocol. The cell pellets were thawed and resuspended in buffer A (50 mM Tris, pH 7.5, 500 mM NaCl, 1 mM TCEP, 10% Glycerol) supplemented with 0.5% CHAPS, 1 mM PMSF, 1 μg/ml Leupeptin, 1 μg/ml Pepstatin, and the Pierce Universal Nuclease and cocktail tablet. Cleared lysates were loaded onto a Ni Sepharose™ excel column and washed with buffer A and bound protein was eluted with buffer A supplemented with 300 mM imidazole. The eluted protein was dialyzed against buffer A and digested by His-tagged TEV (1:5 ratio) overnight at 4° C. ZnCl2 was added into the sample at final 15 μM before loading onto a second Ni Sepharose™ excel column. Untagged WRN protein was eluted from the column with buffer A supplemented with 20 mM imidazole, dialyzed overnight into buffer B (50 mM Tris, pH 7.5, 1 mM TCEP, 10% Glycerol) supplemented with 150 mM NaCl and loaded onto a Heparin column. Proteins were eluted with a step gradient of buffer B supplemented with 150 mM, 200 mM, 300 mM and 500 mM NaCl. WRN containing fractions were pooled and concentrated prior to loading on to size exclusion chromatography using a HiLoad 16/600 Superdex™ 200 pg column (GE Healthcare) in buffer C (20 mM HTEPES, pH 7.5, 250 mM NaCl, 0.25 mM TCEP, […]).

[2] = tested on: p21 induction in HCT116 cells; assay: p21 induction in HCT116 cells; assay type: cell-based; conditions: HCT116 cells, 24 h compound incubation, read-out: P21_EC50
Experimental: The colon carcinoma cell line HCT116 was obtained from ATCC and cultured in growth medium consisting of Mccoy's 5A Medium (Gibco 16600108) supplemented with 10% FBS (Transgene FS201-02) and 100 units/mL penicillin-streptomycin (Gibco 15140122) and maintained at 37° C. under 5% CO2. On the day of seeding, 2,000 cells in 30 μL of culture media were plated per well to Poly-D-Lysine 384 Well Black Clear Plates (Biocoat 356663) and incubated overnight at 37° C. under 5% CO2. The following day, compounds were serially diluted in DMSO for a total of 11 test concentrations. […] Next, 150 nL of diluted compound was added in duplicate to the assay plate, using an Echo 655 (Labcyte). The plate was centrifuged at 500 RPM for 1 min and then incubated at 37° C. under 5% CO2 for 24 h. After 24 h, medium was removed, and cells were fixed by adding 40 μL of 4% paraformaldehyde solution to each well and incubated for 20 min at room temperature. The plate was then washed 4 times with 100 μL per well of wash buffer (PBS with 0.1% Tween-20) using a microplate washer. Next, 30 μL of ice-cold methanol was added to each well and the plate was incubated at −20° C. for 10 min. The plate was washed 4 times with 100 μL per well of wash buffer by a microplate washer, then 30 μL per well of blocking buffer (Intercept PBS blocking buffer (LI-COR 927-70001) with 0.05% Tween-20) was added and the plate was incubated at room temperature with shaking for 2 h. Next, to each test well, 20 μL of primary antibody solution (p21 Waf1/CIP (12D1) RabbitmAb (Cell Signaling Technologies 2947) diluted 1:1000 and GAPDH (D4C6R) Mouse mAb (Cell Signaling Technologies 97166) diluted 1:2000 in blocking buffer) was added and the plate was placed at 4° C., overnight. The following day, the plate was washed 5 times with 100 μL per well of wash buffer using a microplate washer for 5 min. 20 μL per well of secondary antibody (IRDye 680CW Goat anti-Mouse IgG (H+L) (LI-COR 926-68070) diluted 1: 2000 in Blocking Buffer and IRDye 800CW Goat anti-Rabbit IgG (H+L) (LI-COR 926-32211) diluted 1: 2000 in Blocking Buffer) was then added and the plate was stored for 2 h in the dark at room temperature with shaking. The plate was then washed 4 times with 100 μL per well of wash buffer again using a microplate washer. Finally, the p21 signal and the GAPDH signal were quantified using a LI-COR Odyssey CLx Imager machine reading at 800 nm and 700 nm, respectively. Each plate contained DMSO control (low control) and an internal reference WRN inhibitor (high control) respectively. […] EC50 values for each compound were generated after non-linear regression curve fitting using commercially available software.

WRN (BV08), human Werner helicase (Uniprot Q14191, amino acids 517-1235 with L1074F point mutation), sequence (Q14191 other isoform, or with tags, fused parts or gaps L1074F (already in the parent)): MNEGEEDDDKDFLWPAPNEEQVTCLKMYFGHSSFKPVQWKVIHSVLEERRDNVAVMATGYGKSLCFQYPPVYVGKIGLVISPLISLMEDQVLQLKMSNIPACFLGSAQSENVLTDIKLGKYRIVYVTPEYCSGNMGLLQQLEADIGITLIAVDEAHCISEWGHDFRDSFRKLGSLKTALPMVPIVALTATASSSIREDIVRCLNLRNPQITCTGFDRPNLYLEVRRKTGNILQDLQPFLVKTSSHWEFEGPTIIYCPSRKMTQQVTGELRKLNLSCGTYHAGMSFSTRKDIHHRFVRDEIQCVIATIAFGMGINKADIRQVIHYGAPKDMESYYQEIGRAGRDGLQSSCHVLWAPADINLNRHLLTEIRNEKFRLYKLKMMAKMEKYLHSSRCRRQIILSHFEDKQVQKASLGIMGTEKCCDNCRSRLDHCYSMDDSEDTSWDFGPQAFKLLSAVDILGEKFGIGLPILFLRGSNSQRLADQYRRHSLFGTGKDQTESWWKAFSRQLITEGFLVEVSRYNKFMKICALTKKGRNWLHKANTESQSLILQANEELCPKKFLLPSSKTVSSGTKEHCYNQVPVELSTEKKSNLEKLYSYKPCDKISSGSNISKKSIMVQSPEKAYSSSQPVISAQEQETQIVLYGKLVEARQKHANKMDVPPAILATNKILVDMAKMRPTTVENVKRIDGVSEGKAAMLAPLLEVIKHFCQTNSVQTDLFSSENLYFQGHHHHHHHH

| pIC50 [1] | pEC50 ([2]; Homo sapiens, HCT-116, 24 h) | pEC50 [2] | SMILES |
| --- | --- | --- | --- |
| 7.30 to 8.30 | 5.70 to 6.30 |  | CCc1c(N2CCN(C(=O)c3ncnc(C)c3O)[C@H]3CCC32)c(=O)c2nc(OC)c(C)nc2n1CC(=O)Nc1ccc(C(F)(F)F)cc1Cl (mixture of isomers) [I-16, rac-N-(2-chloro-4-(trifluoromethyl)phenyl)-2-(6-ethyl-7-(5-(5-hydroxy-6-methylpyrimidine-4-carbonyl)-2,5-diazabicyclo[4.2.0]octan-2-yl)-2-methoxy-3-methyl-8-oxopyrido[2,3-b]pyrazin-5(8H)-yl)acetamide] |
| 7.30 to 8.30 | > 6.30 |  | CCc1c(N2CCN(C(=O)c3ncnc(C)c3O)[C@H]3CC[C@@H]32)c(=O)c2nc(NC)cnc2n1CC(=O)Nc1ccc(C(F)(F)F)cc1Cl (racemic) [I-97, rac-N-(2-chloro-4-(trifluoromethyl)phenyl)-2-(6-ethyl-7-(-5-(5-hydroxy-6-methylpyrimidine-4-carbonyl)-2,5-diazabicyclo[4.2.0]octan-2-yl)-2-(methylamino)-8-oxopyrido[2,3-b]pyrazin-5(8H)-yl)acetamide] |
| 7.30 to 8.30 | > 6.30 |  | CCc1c(N2CCN(C(=O)c3ncnc(C)c3O)[C@@H]3CC[C@H]32)c(=O)c2nc(C=C3CCC3)cnc2n1CC(=O)Nc1ccc(C(F)(F)F)cc1Cl (racemic) [I-135] |
| 7.30 to 8.30 | > 6.30 |  | CCO/C=C/c1cnc2c(n1)c(=O)c(N1CCN(C(=O)c3ncnc(C)c3O)[C@H]3CC[C@@H]31)c(CC)n2CC(=O)Nc1ccc(C(F)(F)F)cc1Cl (racemic) [I-136, rac-N-[2-chloro-4-(trifluoromethyl)phenyl]-2-{2-[(1E)-2-ethoxyethenyl]-6-ethyl-7-[-5-(5-hydroxy-6-methylpyrimidine-4-carbonyl)-2,5-diazabicyclo[4.2.0]octan-2-yl]-8-oxo-5H,8H-pyrido[2,3-b]pyrazin-5-yl}acetamide] |
| 7.30 to 8.30 | 5.70 to 6.30 |  | CCc1c(N2CCN(C(=O)c3c(O)ccnc3OC)[C@@H]3CC[C@H]32)c(=O)c2nc(N(C)C)cnc2n1CC(=O)Nc1ccc(C(F)(F)F)cc1Cl (racemic) [I-139, rac-N-[2-chloro-4-(trifluoromethyl)phenyl]-2-[2-(dimethylamino)-6-ethyl-7-[-5-(4-hydroxy-2-methoxypyridine-3-carbonyl)-2,5-diazabicyclo[4.2.0]octan-2-yl]-8-oxo-5H,8H-pyrido[2,3-b]pyrazin-5-yl]acetamide] |
| 7.30 to 8.30 | 5.30 to 5.70 |  | CCc1c(N2CCN(C(=O)c3ncnc(C)c3O)CC2)c(=O)c2nc(N(C)[C@H]3CC[C@@H]3OC)cnc2n1CC(=O)Nc1ccc(C(F)(F)F)cc1Cl (racemic) [I-143, rac-N-(2-chloro-4-(trifluoromethyl)phenyl)-2-(6-ethyl-7-(4-(5-hydroxy-6-methylpyrimidine-4-carbonyl)piperazin-1-yl)-2-((2-methoxycyclobutyl)(methyl)amino)-8-oxopyrido[2,3-b]pyrazin-5(8H)-yl)acetamide] |
| 7.30 to 8.30 | 5.30 to 5.70 |  | CCc1c(N2CCN(C(=O)c3ncnc(C)c3O)CC2)c(=O)c2nc(N(C)[C@H]3CC[C@H]3OC)cnc2n1CC(=O)Nc1ccc(C(F)(F)F)cc1Cl (racemic) [I-146, rac-N-(2-chloro-4-(trifluoromethyl)phenyl)-2-(6-ethyl-7-(4-(5-hydroxy-6-methylpyrimidine-4-carbonyl)piperazin-1-yl)-2-((2-methoxycyclobutyl)(methyl)amino)-8-oxopyrido[2,3-b]pyrazin-5(8H)-yl)acetamide] |
| 7.30 to 8.30 | > 6.30 |  | CCc1c(N2CCN(C(=O)c3ncnc(C)c3O)CC2)c(=O)c2nc(N3CC[C@@H]4CC[C@@H]43)cnc2n1CC(=O)Nc1ccc(C(F)(F)F)cc1Cl (racemic) [I-230, rac-2-(2-(2-azabicyclo[3.2.0]heptan-2-yl)-6-ethyl-7-(4-(5-hydroxy-6-methylpyrimidine-4-carbonyl)piperazin-1-yl)-8-oxopyrido[2,3-b]pyrazin-5(8H)-yl)-N-(2-chloro-4-(trifluoromethyl)phenyl)acetamide] |
| 7.30 to 8.30 | 5.30 to 5.70 |  | CCc1c(N2CCN(C(=O)c3ncnc(C)c3O)[C@H]3CC(F)(F)C[C@@H]32)c(=O)c2nc(N(C)C)cnc2n1CC(=O)Nc1ccc(C(F)(F)F)cc1Cl (racemic) [I-291, rac-N-(2-chloro-4-(trifluoromethyl)phenyl)-2-(7-(6,6-difluoro-4-(5-hydroxy-6-methylpyrimidine-4-carbonyl)octahydro-1H-cyclopenta[b]pyrazin-1-yl)-2-(dimethylamino)-6-ethyl-8-oxopyrido[2,3-b]pyrazin-5(8H)-yl)acetamide] |
| ≥ 8.30 | > 6.30 |  | CCc1c(N2CCN(C(=O)c3ncnc(C)c3O)[C@H]3CC[C@@H]32)c(=O)c2nc(N3CC[C@H]4C[C@H]43)cnc2n1CC(=O)Nc1ccc(C(F)(F)F)cc1F (relative stereo) [I-122, 2-(2-((1R*,5S*)-2-azabicyclo[3.1.0]hexan-2-yl)-6-ethyl-7-((1S,6S)-5-(5-hydroxy-6-methylpyrimidine-4-carbonyl)-2,5-diazabicyclo[4.2.0]octan-2-yl)-8-oxopyrido[2,3-b]pyrazin-5(8H)-yl)-N-(2-fluoro-4-(trifluoromethyl)phenyl)acetamide] |
| 7.30 to 8.30 |  | < 5.30 | CCc1c(N2CCN(C(=O)c3ncnc(C)c3O)[C@@H](COC)C2)c(=O)c2nc(N(C)C)cnc2n1CC(=O)Nc1ccc(C(F)(F)F)cc1Cl (single isomer, unassigned) [I-96, N-(2-chloro-4-(trifluoromethyl)phenyl)-2-(2-(dimethylamino)-6-ethyl-7-(4-(5-hydroxy-6-methylpyrimidine-4-carbonyl)-3-(methoxymethyl)piperazin-1-yl)-8-oxopyrido[2,3-b]pyrazin-5(8H)-yl)acetamide] |
